In ChEMBL document CHEMBL5512692, “Colloidal Aggregation Confounds Cell-Based Covid-19 Antiviral Screens” (J Med Chem, 2024):
Activity calls are given as the source filed them. The rule behind the calls is not given here.

Columns and labels:
[1] = biological target: Spike glycoprotein (Severe acute respiratory syndrome coronavirus 2) (UniProt P0DTC2); assay: Binding affinity to Alex-fluor-647 labeled SARS-CoV-2 spike protein assessed as protein-colloid complex formation by measuring fluorescence puncta formation incubated for 5 mins by confocal microscopic analysis
[2] = Aggregation property of compound in 50 mM KPi buffer at pH 7 assessed as critical aggregation concentration by DLS assay; assay type: physicochemical
SARS-CoV-2 [3] = assay: Antiviral activity against luciferase independent SARS CoV-2 spike-pseudotyped lentivirus infected in human A549-hACE2-TMPRSS2 cells assessed as inhibition of viral entry measured after 24 hrs before centrifugation by luciferase reporter assay; assay type: functional, organism-based; conditions: Severe acute respiratory syndrome coronavirus 2, A549-hACE2-TMPRSS2
Sus scrofa [4] = species on record: Sus scrofa; assay: Inhibition of porcine heart MDH using oxaloacetic acid as substrate assessed as enzyme recovery by measuring residual activity at approximately IC90 preincubated for 5 mins in presence of 10 mg/ml BSA followed by enzyme addition and measured after 5 mins by absorbance based analysis relative to control; conditions: time 10.0 min
[5] = Inhibition of porcine heart MDH using oxaloacetic acid as substrate preincubated for 5 mins followed by substrate and […] addition and measured for 80 sec by absorbance based analysis; design: species or system Sus scrofa
SARS-CoV-2 [6] = assay: Antiviral activity against luciferase independent SARS CoV-2 spike-pseudotyped lentivirus infected in human A549-hACE2-TMPRSS2 cells assessed as inhibition of viral entry by measuring reduction in luciferase activity incubated for 24 hrs by luciferase reporter assay; assay type: functional, organism-based; conditions: Severe acute respiratory syndrome coronavirus 2
[7] = Aggregation property of compound in DMEM media assessed as critical aggregation concentration by DLS assay; assay type: physicochemical
[8] = biological target: Spike glycoprotein (Severe acute respiratory syndrome coronavirus 2) (UniProt P0DTC2); assay: Binding affinity to Alex-fluor-647 labeled SARS-CoV-2 spike protein assessed as protein-colloid complex formation by measuring fluorescence puncta formation compound preincubated with 10 mg/ml BSA for 5 mins followed by protein addition and further incubated for 5 mins by confocal microscopic analysis
[9] = biological target: Spike glycoprotein (Severe acute respiratory syndrome coronavirus 2) (UniProt P0DTC2); assay: Binding affinity to Alex-fluor-647 labeled SARS-CoV-2 spike protein assessed as protein-colloid complex formation by measuring fluorescence puncta formation incubated for 5 mins in presence of 0.025% Tween-80 by confocal microscopic analysis
[10] = Absorption property of compound in DMEM media at 100 to 200 uM at 500 to 700 nm by luciferase assay; assay type: physicochemical; conditions: dose 100-200 µM
SARS-CoV-2 [11] = assay: Antiviral activity against SARS CoV-2 spike-pseudotyped lentivirus infected in human A549-hACE2-TMPRSS2 cells assessed as inhibition of viral entry incubated for 24 hrs in absence of BSA by luciferase reporter assay; assay type: functional, organism-based; conditions: Severe acute respiratory syndrome coronavirus 2, A549-hACE2-TMPRSS2, 24 h
SARS-CoV-2 [12] = assay: Antiviral activity against SARS-CoV-2; assay type: functional, organism-based; conditions: Severe acute respiratory syndrome coronavirus 2
SARS-CoV-2 [13] = assay: Antiviral activity against luciferase independent SARS CoV-2 spike-pseudotyped lentivirus infected in human A549-hACE2-TMPRSS2 cells assessed as inhibition of viral entry at 31.6 to 63.3 uM compound spin-down for 1 hr followed by viral infection and measured after 24 hrs by luciferase reporter assay; assay type: functional, organism-based; conditions: Severe acute respiratory syndrome coronavirus 2, dose 31.6-63.3 µM, time 25.0 hrs
Sus scrofa [14] = species on record: Sus scrofa; assay: Inhibition of porcine heart MDH using oxaloacetic acid as substrate assessed as enzyme recovery by measuring residual activity at approximately IC90 preincubated for 5 mins in presence of triton X-0.01% followed by substrate and […] addition and measured for 80 sec by absorbance based analysis relative to control; conditions: time 380.0 sec
SARS-CoV-2 [15] = assay: Antiviral activity against SARS CoV-2 spike-pseudotyped lentivirus infected in human A549-hACE2-TMPRSS2 cells assessed as inhibition of viral entry preincubated with 10 mg/ml BSA for 5 mins followed by viral infection and further incubated for 24 hrs by luciferase reporter assay; assay type: functional, organism-based; conditions: Severe acute respiratory syndrome coronavirus 2, A549-hACE2-TMPRSS2
[16] = Cytotoxicity against human A549-hACE2-TMPRSS2 assessed as reduction in cell viability incubated for 24 hrs by MTT assay; assay type: toxicity, cell-based; conditions: a549-hace2-tmprss2, 24 h
Sus scrofa [17] = species on record: Sus scrofa; assay: Inhibition of porcine heart MDH using oxaloacetic acid as substrate at approximately IC90 spin-down for 1 hr followed by enzyme addition and measured after 5 mins by absorbance based analysis; conditions: time 65.0 min

| Compound | Activity [1] | CAC [2] | EC50 (SARS-CoV-2 [3]) | Activity (Sus scrofa [4]) | IC50 [5] | Activity (SARS-CoV-2 [6]) | CAC [7] | Activity [8] | Activity [9] | Activity [10] | EC50 (SARS-CoV-2 [11]) | EC50 (SARS-CoV-2 [12]) | Activity (SARS-CoV-2 [13]) | Activity (Sus scrofa [14]) | EC50 (SARS-CoV-2 [15]) | Activity [16] | inhibition (Sus scrofa [17]) |
| --- | --- | --- | --- | --- | --- | --- | --- | --- | --- | --- | --- | --- | --- | --- | --- | --- | --- |
| Cc1cc(O)c2c(c1)C(=O)c1cc(O)cc(O)c1C2=O [EMODIN] | Active | 8.6 µM | 2.22 µM | 67% | 39 µM | Active | 63.1 µM | inactive | inactive | Not Active | 2.21 µM | 25 µM |  |  |  |  |  |
| COc1c(O)cc2oc(-c3ccccc3)cc(=O)c2c1O [OROXYLIN A] |  |  |  | 33% | 73 µM |  |  |  |  | Not Active |  | 20 µM | Active | 42% |  |  |  |
| CCOC(=O)c1c(CSc2ccccc2)n(C)c2cc(Br)c(O)c(CN(C)C)c12 [UMIFENOVIR] |  | 58 µM | 0.44 µM | 43% | 8.6 µM | Active | 28 µM |  |  | Not Active | 0.26 µM |  |  | 58% | 25 µM |  |  |
| CNC(=O)c1cc(Oc2ccc(NC(=O)Nc3ccc(Cl)c(C(F)(F)F)c3)cc2)ccn1 [SORAFENIB] |  |  | 0.27 µM |  |  | Active |  |  |  |  | 0.41 µM |  |  |  | 21 µM |  |  |
| O=C(O[C@@H]1Cc2c(O)cc(O)cc2O[C@@H]1c1cc(O)c(O)c(O)c1)c1cc(O)c(O)c(O)c1 [EPIGALOCATECHIN GALLATE] |  |  |  | 53% |  |  |  |  |  |  | 35.1 µM | 5.38 µM | Active | 63.3% |  |  |  |
| Oc1ccc(-c2[o+]c3cc(O)cc(O)c3cc2O)cc1.[Cl-] [PELARGONIDIN CHLORIDE] |  | 79 µM |  | 130% | 8.1 µM |  | 56 µM |  |  | Not Active |  | 50 µM |  | 83% |  |  |  |
| CC(C)C(=O)OCC(=O)[C@@]12O[C@H](C3CCCCC3)O[C@@H]1C[C@H]1[C@@H]3CCC4=CC(=O)C=C[C@]4(C)[C@H]3[C@@H](O)C[C@@]12C [CICLESONIDE] |  | 8.1 µM |  | 57% | 10 µM |  | 4.2 µM |  |  | Not Active |  | 20.5 µM |  | 66.1% |  |  |  |
| CC1(C)Cc2c(-c3ccccc3)c(-c3ccc(Cl)cc3)c(CC(=O)O)n2C1 [LICOFELONE] |  | 54 µM |  |  | 23 µM |  | 5.5 µM |  |  | Not Active |  |  |  |  |  | Toxic |  |
| O=c1c(O)c(-c2ccc(O)c(O)c2)oc2cc(O)cc(O)c12 [QUERCETIN] |  | 62 µM |  | 108% | 3.3 µM |  | 100 µM |  |  | Not Active |  |  |  | 61% |  |  |  |
| O=c1cc(-c2ccc(O)c(-c3c(O)cc(O)c4c(=O)cc(-c5ccc(O)cc5)oc34)c2)oc2cc(O)cc(O)c12 [AMENTOFLAVONE] |  | 25 µM |  | 78% | 6.1 µM |  | 100 µM |  |  |  |  |  |  | 93% |  |  |  |
| C=C(C)[C@@H]1CCC(C)=C[C@H]1c1c(O)cc(CCCCC)c(C(=O)O)c1O [CANNABIDIOLIC ACID] |  | 61 µM |  | 61% | 47 µM |  | 14 µM |  |  | Not Active |  |  | Active | 81.3% |  | Toxic | Active |
| Cc1cc(O)c2c(=O)c3c(O)cc(O)c4c5c(O)cc(O)c6c(=O)c7c(O)cc(C)c8c1c2c(c34)c(c78)c65 [HYPERICIN] |  | 3.3 µM |  | 99% | 0.3 µM |  | 3.7 µM |  |  | Not Active | 84.4 µM | 1.24 µM |  | 90% |  |  |  |
| O=c1cc(-c2ccc(O)c(O)c2)oc2cc(O)cc(O)c12 [LUTEOLIN] |  | 83 µM |  | 107% | 15 µM |  | 28 µM |  |  | Not Active |  | 10 µM |  | 89% |  |  |  |
| CCCCCc1cc(O)c(C/C=C(\C)CCC=C(C)C)c(O)c1C(=O)O [CANNABIGEROLIC ACID] | Active | 12 µM |  | 68% | 29 µM | Active | 162 µM | inactive | inactive | Not Active | 1.21 µM |  | Active | 95.7% |  | Toxic | Active |
| C[C@]12CC[C@@H]3c4ccc(O)cc4C[C@@H](CCCCCCCCC[S+]([O-])CCCC(F)(F)C(F)(F)F)[C@H]3[C@@H]1CC[C@@H]2O (stereo partly drawn) [FULVESTRANT] |  |  | 0.19 µM |  |  | Active |  |  |  |  |  |  |  |  |  |  |  |
| CC(C)=CCc1c(O)ccc(C(=O)/C=C/c2ccc(O)cc2)c1O [ISOBAVACHALCONE] |  | 6.1 µM |  | 108% | 36 µM |  | 63 µM |  |  | Not Active |  |  |  | 109% |  | Toxic |  |
| C=C[C@@](C)(/C=C/c1ccc(O)cc1)CCC=C(C)C [BAKUCHIOL] |  | 6.2 µM |  | 77% | 12 µM | Active | 2.5 µM |  |  | Not Active | 5.35 µM |  |  | 111% | 51.5 µM |  |  |
